# Laboratory results as given in patent publication US9920063B2, “Melampomagnolide B derivatives” (Board of Trustees of the University of Arkansas, priority 2013, dated 2018).
# Read-outs that look alike come from different tables or passages of the source.
# Tests used:
# [1] = system: panel of 60 human cancer cell lines; assay: Screen against a panel of 60 human tumor cell lines (single dose and five dose), panel and sub-panel statements; format: cell-based
structure (smiles),measurement,setting,value
C=C1C(=O)O[C@H]2[C@H]1CC/C(COC(=O)c1cc3ccccc3[nH]1)=C\CC[C@@]1(C)O[C@@H]21 [BS-1-28],CC50,RXF 393,6230 nM
same,Percent Growth,"RXF 393; RXF 393, Log10 Concentration −4.0",−65%
same,Percent Growth,"RXF 393; RXF 393, Log10 Concentration −5.0",−77%
same,Percent Growth,"RXF 393; RXF 393, Log10 Concentration −6.0",54%
same,Percent Growth,"RXF 393; RXF 393, Log10 Concentration −7.0",85%
same,Percent Growth,"RXF 393; RXF 393, Log10 Concentration −8.0",73%
same,GI50,"RXF 393; RXF 393, NCI five dose",1070 nM
same,TGI,"RXF 393; RXF 393, NCI five dose",2.58E−6
same,CC50,OVCAR-5,8220 nM
same,Percent Growth,"OVCAR-5; OVCAR-5, Log10 Concentration −4.0",−88%
same,Percent Growth,"OVCAR-5; OVCAR-5, Log10 Concentration −5.0",−59%
same,Percent Growth,"OVCAR-5; OVCAR-5, Log10 Concentration −6.0",57%
same,Percent Growth,"OVCAR-5; OVCAR-5, Log10 Concentration −7.0",96%
same,Percent Growth,"OVCAR-5; OVCAR-5, Log10 Concentration −8.0",85%
same,GI50,"OVCAR-5; OVCAR-5, NCI five dose",1140 nM
same,TGI,"OVCAR-5; OVCAR-5, NCI five dose",3.07E−6
same,CC50,TK-10,5390 nM
same,Percent Growth,"TK-10; TK-10, Log10 Concentration −4.0",−98%
same,Percent Growth,"TK-10; TK-10, Log10 Concentration −5.0",−96%
same,Percent Growth,"TK-10; TK-10, Log10 Concentration −6.0",74%
same,Percent Growth,"TK-10; TK-10, Log10 Concentration −7.0",117%
same,Percent Growth,"TK-10; TK-10, Log10 Concentration −8.0",95%
same,GI50,"TK-10; TK-10, NCI five dose",1390 nM
same,TGI,"TK-10; TK-10, NCI five dose",2.73E−6
same,CC50,SK-OV-3,11700 nM
same,Percent Growth,"SK-OV-3; SK-OV-3, Log10 Concentration −4.0",−86%
same,Percent Growth,"SK-OV-3; SK-OV-3, Log10 Concentration −5.0",−47%
same,Percent Growth,"SK-OV-3; SK-OV-3, Log10 Concentration −6.0",77%
same,Percent Growth,"SK-OV-3; SK-OV-3, Log10 Concentration −7.0",90%
same,Percent Growth,"SK-OV-3; SK-OV-3, Log10 Concentration −8.0",82%
same,GI50,"SK-OV-3; SK-OV-3, NCI five dose",1650 nM
same,TGI,"SK-OV-3; SK-OV-3, NCI five dose",4.47E−6
same,CC50,PC-3,6450 nM
same,Percent Growth,"PC-3; PC-3, Log10 Concentration −4.0",−94%
same,Percent Growth,"PC-3; PC-3, Log10 Concentration −5.0",−79%
same,Percent Growth,"PC-3; PC-3, Log10 Concentration −6.0",73%
same,Percent Growth,"PC-3; PC-3, Log10 Concentration −7.0",87%
same,Percent Growth,"PC-3; PC-3, Log10 Concentration −8.0",88%
same,GI50,"PC-3; PC-3, NCI five dose",1420 nM
same,TGI,"PC-3; PC-3, NCI five dose",3.62E−4
same,CC50,HCT-116,841 nM
same,Percent Growth,"HCT-116; HCT-116, Log10 Concentration −4.0",−91%
same,Percent Growth,"HCT-116; HCT-116, Log10 Concentration −5.0",−94%
same,Percent Growth,"HCT-116; HCT-116, Log10 Concentration −6.0",−62%
same,Percent Growth,"HCT-116; HCT-116, Log10 Concentration −7.0",96%
same,Percent Growth,"HCT-116; HCT-116, Log10 Concentration −8.0",97%
same,GI50,"HCT-116; HCT-116, NCI five dose",196 nM
same,TGI,"HCT-116; HCT-116, NCI five dose",4.06E−7
same,CC50,SF-539,6530 nM
same,Percent Growth,"SF-539; SF-539, Log10 Concentration −4.0",−91%
same,Percent Growth,"SF-539; SF-539, Log10 Concentration −5.0",−91%
same,Percent Growth,"SF-539; SF-539, Log10 Concentration −6.0",70%
same,Percent Growth,"SF-539; SF-539, Log10 Concentration −7.0",93%
same,Percent Growth,"SF-539; SF-539, Log10 Concentration −8.0",90%
same,GI50,"SF-539; SF-539, NCI five dose",1320 nM
same,TGI,"SF-539; SF-539, NCI five dose",2.71E−4
same,CC50,LOX IMVI,732 nM
same,Percent Growth,"LOX IMVI; LOX IMVI, Log10 Concentration −4.0",−81%
same,Percent Growth,"LOX IMVI; LOX IMVI, Log10 Concentration −5.0",−88%
same,Percent Growth,"LOX IMVI; LOX IMVI, Log10 Concentration −6.0",−72%
same,Percent Growth,"LOX IMVI; LOX IMVI, Log10 Concentration −7.0",93%
same,Percent Growth,"LOX IMVI; LOX IMVI, Log10 Concentration −8.0",93%
same,GI50,"LOX IMVI; LOX IMVI, NCI five dose",182 nM
same,TGI,"LOX IMVI; LOX IMVI, NCI five dose",3.65E−7
same,CC50,MDA-MB-468,5170 nM
same,Percent Growth,"MDA-MB-468; MDA-MB-468, Log10 Concentration −4.0",−52%
same,Percent Growth,"MDA-MB-468; MDA-MB-468, Log10 Concentration −5.0",−71%
same,Percent Growth,"MDA-MB-468; MDA-MB-468, Log10 Concentration −6.0",3%
same,Percent Growth,"MDA-MB-468; MDA-MB-468, Log10 Concentration −7.0",95%
same,Percent Growth,"MDA-MB-468; MDA-MB-468, Log10 Concentration −8.0",76%
same,GI50,"MDA-MB-468; MDA-MB-468, NCI five dose",307 nM
same,TGI,"MDA-MB-468; MDA-MB-468, NCI five dose",1.10E−6
same,CC50,UACC-257,6980 nM
same,Percent Growth,"UACC-257; UACC-257, Log10 Concentration −4.0",−78%
same,Percent Growth,"UACC-257; UACC-257, Log10 Concentration −5.0",−75%
same,Percent Growth,"UACC-257; UACC-257, Log10 Concentration −6.0",53%
same,Percent Growth,"UACC-257; UACC-257, Log10 Concentration −7.0",93%
same,Percent Growth,"UACC-257; UACC-257, Log10 Concentration −8.0",98%
same,GI50,"UACC-257; UACC-257, NCI five dose",1610 nM
same,TGI,"UACC-257; UACC-257, NCI five dose",3.36E−6
same,"Growth inhibition, five dose screening","[1]; CCRF-CEM, HL-60 (TB), K-562, RPMI-8226, HOP-92, NCI-H522, HCT-116, HCT-15, SW-620, LOX IMVI, M14, MDA-MB-435, 786-0, ACHN, UO-31",potent nanomolar growth inhibition
same,"Anticancer activity, five dose screening","[1]; melanoma, leukemia, colon, CNS, breast, ovarian, non-small cell lung, renal, and prostate cancers",remarkable anticancer activity
same,Outcome of initial single dose screening,"[1]; single concentration 10^−5 M, more than 60% growth inhibition in at least eight cell lines of the panel",selected for five dose screening
same,Percent Growth,HL-60(TB); Log10 Concentration −4.0,−57%
same,Percent Growth,HL-60(TB); Log10 Concentration −5.0,−17%
same,Percent Growth,HL-60(TB); Log10 Concentration −6.0,28%
same,Percent Growth,HL-60(TB); Log10 Concentration −7.0,112%
same,Percent Growth,HL-60(TB); Log10 Concentration −8.0,114%
same,GI50,HL-60(TB); NCI five dose,546 nM
same,TGI,HL-60(TB); NCI five dose,4.15E−6
same,CC50,"HL-60(TB); read-out: LC50, NCI five dose",65800 nM
same,CC50,SR,> 100000 nM
same,Percent Growth,"SR; SR, Log10 Concentration −4.0",−39%
same,Percent Growth,"SR; SR, Log10 Concentration −5.0",−28%
same,Percent Growth,"SR; SR, Log10 Concentration −6.0",53%
same,Percent Growth,"SR; SR, Log10 Concentration −7.0",98%
same,Percent Growth,"SR; SR, Log10 Concentration −8.0",162%
same,GI50,"SR; SR, NCI five dose",1080 nM
same,TGI,"SR; SR, NCI five dose",4.51E−6
same,CC50,RPMI-8226,> 100000 nM
same,Percent Growth,"RPMI-8226; RPMI-8226, Log10 Concentration −4.0",−34%
same,Percent Growth,"RPMI-8226; RPMI-8226, Log10 Concentration −5.0",−26%
same,Percent Growth,"RPMI-8226; RPMI-8226, Log10 Concentration −6.0",−8%
same,Percent Growth,"RPMI-8226; RPMI-8226, Log10 Concentration −7.0",92%
same,Percent Growth,"RPMI-8226; RPMI-8226, Log10 Concentration −8.0",97%
same,GI50,"RPMI-8226; RPMI-8226, NCI five dose",264 nM
same,TGI,"RPMI-8226; RPMI-8226, NCI five dose",8.27E−7
same,CC50,MOLT-4,> 100000 nM
same,Percent Growth,"MOLT-4; MOLT-4, Log10 Concentration −4.0",−32%
same,Percent Growth,"MOLT-4; MOLT-4, Log10 Concentration −5.0",−3%
same,Percent Growth,"MOLT-4; MOLT-4, Log10 Concentration −6.0",62%
same,Percent Growth,"MOLT-4; MOLT-4, Log10 Concentration −7.0",103%
same,Percent Growth,"MOLT-4; MOLT-4, Log10 Concentration −8.0",105%
same,GI50,"MOLT-4; MOLT-4, NCI five dose",1510 nM
same,TGI,"MOLT-4; MOLT-4, NCI five dose",8.89E−6
same,CC50,OVCAR-8,64600 nM
same,Percent Growth,"OVCAR-8; OVCAR-8, Log10 Concentration −4.0",−63%
same,Percent Growth,"OVCAR-8; OVCAR-8, Log10 Concentration −5.0",5%
same,Percent Growth,"OVCAR-8; OVCAR-8, Log10 Concentration −6.0",69%
same,Percent Growth,"OVCAR-8; OVCAR-8, Log10 Concentration −7.0",63%
same,Percent Growth,"OVCAR-8; OVCAR-8, Log10 Concentration −8.0",58%
same,GI50,"OVCAR-8; OVCAR-8, NCI five dose",1990 nM
same,TGI,"OVCAR-8; OVCAR-8, NCI five dose",1.19E−4
same,CC50,NCI-H460,7750 nM
same,Percent Growth,"NCI-H460; NCI-H460, Log10 Concentration −4.0",−75%
same,Percent Growth,"NCI-H460; NCI-H460, Log10 Concentration −5.0",−67%
same,Percent Growth,"NCI-H460; NCI-H460, Log10 Concentration −6.0",86%
same,Percent Growth,"NCI-H460; NCI-H460, Log10 Concentration −7.0",101%
same,Percent Growth,"NCI-H460; NCI-H460, Log10 Concentration −8.0",166%
same,GI50,"NCI-H460; NCI-H460, NCI five dose",1730 nM
same,TGI,"NCI-H460; NCI-H460, NCI five dose",3.66E−6
same,CC50,HCT-15,2430 nM
same,Percent Growth,"HCT-15; HCT-15, Log10 Concentration −4.0",−82%
same,Percent Growth,"HCT-15; HCT-15, Log10 Concentration −5.0",−64%
same,Percent Growth,"HCT-15; HCT-15, Log10 Concentration −6.0",−41%
same,Percent Growth,"HCT-15; HCT-15, Log10 Concentration −7.0",94%
same,Percent Growth,"HCT-15; HCT-15, Log10 Concentration −8.0",93%
same,GI50,"HCT-15; HCT-15, NCI five dose",211 nM
same,TGI,"HCT-15; HCT-15, NCI five dose",4.95E−7
